Measured values published in patent US6713057B1, “Compositions and methods for modulating serum cholesterol” (The Johns Hopkins University, priority 1999, dated 2004).

Experiments:
[1] = test system: SREBP-1; assay: Indirect immunofluorescence of SREBP-1 subcellular localization; type: cell-based, human; settings: 30 minutes after initiating treatment; TNF-α 10 ng/ml, sphingomyelinase 100 mUnits, C2-ceramide 10 μM
Description: FIGS. 5A-5D show indirect immunofluorescence of SREBP-1. FIGS. 5A-5D are discussed in more detail as follows. SREBP-1 was visualized with rabbit polyclonal antibodies directed towards the N-terminal DNA binding domain which is common to both the precursor and mature forms. Cells were maintained in media supplemented with 1 μg/ml 25-hydroxycholesterol and 15 μg/ml cholesterol for 24 hours before the experiment. Immunofluorescence was performed as described. All magnifications are 40× and all photographs were taken of samples that were fixed 30 minutes after initiating treatment. FIG. 5A) Control cells, FIG. 5B) Cells treated with TNF-α (10 ng/ml), FIG. 5C) Cells treated with sphingomyelinase (100 mUnits), FIG. 5D) Cells treated with C2-ceramide (10 μM).
Cultured HH-25 cells were grown on coverslips and treated as described. After treatment, the cells were washed 3×5 minutes with PBS containing 1 mM MgCl2 and 0.1 mM CaCl2 (solution A). The cells were fixed with 3% paraformaldehyde in solution A for 10 minutes and permeabilized with 0.5% Triton X-100 in solution A for 6 minutes at room temperature. The coverslips were then washed 3×5 minutes with solution A.
Primary antibody (anti-SREBP1) was used at a dilution of […] in PBS and applied for 1 hour with gentle shaking. The cells were washed as above and a FITC conjugated anti-rabbit IgG secondary antibody, was applied for ½ hour according to the instructions of the manufacturer. The coverslips were washed, mounted on microscope slides and were viewed and photographed at the indicated magnification on a Zeiss Axiovert 25 fluorescence microscope.

[2] = test system: SREBP-1; assay: SREBP-1 proteolysis (maturation) assay, Western immunoblot of nuclear fractions, HH-25 hepatocytes; type: cell-based, human; settings: for increase in mass of the mature form of SREBP-1: sterol supplemented media
Description: FIGS. 2A-2C illustrate effects of TNF-α sphingomyelinase and C2-ceramide on the kinetics of SREBP-1 maturation—FIGS. 2A-2C is explained in more detail as follows: Cells were maintained in media supplemented with 1 μg/ml 25-hydroxy cholesterol and 15 μg/ml cholesterol for 24 hours before the experiment. The cells were treated for the indicated time as described in materials and methods. The cells were then harvested in PBS, pelleted and frozen. Lysis and nuclear fractionation were performed as described. Nuclear fractions (50 μg of protein) were electrophoresed on a 7.5% polyacrylamide gel and transferred to a PVDF membrane. Western blotting was performed as described. Band intensity was quantified via densitometry. Error bars represent ±one standard deviation from the mean. 2A) The kinetics of SREBP maturation as measured by the increase in mature SREBP-1 are plotted. Fold increase was calculated by comparing each time point to the corresponding control value (TNF-α is represented by stippled bars, bacterial sphingomyelinase is represented by light gray bars and C2-ceramide by the dark bars.) 2B) Cells were treated with TNF-α (10 ng/ml) and prepared as described above. The bands corresponding to the precursor and mature forms of SREBP-1 were quantified and their ratio plotted. 2C) Representative Western blots from which numerical data was derived. Incubation time is indicated above and applies to all conditions. The membranes were exposed to film for 15 seconds. P and M denote the precursor and mature forms of SREBP-1 respectively.
FIGS. 3A-3C show effects of TNF-α, sphingomyelinase and C2-ceramide concentration on SREBP-1 maturation—The FIGS. 3A-3C are explained in more detail as follows. […] Nuclear pellets were prepared and electrophoresed (50 μg of protein). The bands corresponding to the precursor and mature forms of SREBP-1 were quantified. The precursor to mature ratios were normalized to a single control to facilitate comparison. The control ratio was arbitrarily assigned a value of 1. A Unit of sphingomyelinase activity hydrolyzes 1.0 μmol of sphingomyelin per minute at 37° C. FIG. 3A (ng/ml TNF-α); FIG. 3B (mUnits of sphingomyelinase); FIG. 3C (micromolar C2-ceramide).
HH-25 cells were grown in alpha-minimal essential media supplemented with 100 units/ml penicillin, 100 µg/ml streptomycin, […], 0.1 μM selenium, 5.5 μg/ml transferrin, 0.5 μg/ml linoleic acid and 10% fetal bovine serum (media A). The cells were incubated in serum free F10 media for 30 to 60 minutes prior to initiating treatment with TNF-α, C2-ceramide or sphingomyelinase.
Following treatment, the cells were washed with 5 ml of PBS and pelleted at 1500×g for 10 minutes at 4° C. The pellet was stored at −70° C. and lysed in 0.5 ml buffer A (10 mM HEPES pH 7.4, 5 mM EDTA, 0.25 mM EGTA, 50 mM NaF, 7 mM β-mercaptoethanol, 0.35M sucrose, 0.1% NP-40 and protease inhibitors 1 mM PMSF, 2 μg/ml aprotinin, 10 μg/ml leupeptin and 5 μg/ml pepstatin). The lysate was centrifuged at 12,000×g for 15 minutes at 4° C. to prepare a nuclear fraction. The protein concentration of these samples was determined by the method of Lowry et al. al. (19).
50 μg of nuclear protein was separated by gel electrophoresis on a 7.5% polyacrylamide gel. Gels were calibrated by high range molecular weight markers (Bio-Rad product #161-0303, New York, N.Y.) which were transferred to a polyvinyl difluoride (PVDF) membrane and visualized with coomassie staining. Rabbit polyclonal antibodies against SREBP-1 were used at 0.5 μg/ml according to the instructions of the manufacturer. The antibody was visualized with horseradish peroxidase conjugated anti-rabbit IgG made in donkey (Amersham) using the Enhanced Chemiluminescence (ECL) Western Blotting Detection System Kit (Amersham). PVDF membranes were exposed to Hyperfilm ECL (Amersham) for the indicated time. Immunoblots were quantified via densitometry performed on a PDI densitometer scanner (model 20J7) coupled to a SPARC IRC workstation.

[3] = test system: HH-25 cells; assay: DNA laddering assay (apoptosis) in hepatocytes; settings: 1 hour treatment, concentrations as in maturation studies, refed 6 hours
Description: Cells were treated with either TNF-α, sphingomyelinase or C2-ceramide for 1 hour at concentrations identical to those used in the SREBP-1 maturation studies. The cells were then washed twice with minimal essential medium and refed with media A for 6 hours. […] Genomic DNA was electrophoresed and stained with ethidium bromide.

Molecule | subcellular localization of SREBP-1 (staining pattern) [1] | Emax ([2]; Homo sapiens, Hepatocyte, 1 μM of C2-ceramide, read-out: percent of maximal effect on SREBP-1 maturation) | persistence of the increase in mature SREBP-1 ([2]; after 60 minutes) | induction of apoptosis (160 bp DNA ladder) [3] | concentration giving maximal effect on SREBP-1 maturation [2] | dependence of extent of SREBP-1 maturation on concentration [2] | maximal decrease in the precursor to mature SREBP-1 ratio ([2]; 45 minutes after TNF-α (10 ng/ml) was added) | increase in mass of the mature form of SREBP-1 ([2]; after 5 minutes of incubation) | increase in mass of the mature form of SREBP-1 ([2]; after 15 minutes of treatment)
CCCCCCCCCCCCC/C=C/[C@@H](O)[C@H](CO)NC(C)=O [C2-ceramide, N-acetylsphingosine, reference compound] | intense nuclear staining and little extra-nuclear staining | 81% | persistent elevation | did not induce apoptosis |  |  |  |  | 
TNF-α | intense nuclear staining and little extra-nuclear staining |  |  | did not induce apoptosis | 10 ng/mL | did not vary appreciably with concentration | 1.5 fold | 2 fold | 3 fold
